Columns and labels:
U87MG = assay: Cell proliferation assay (CellTiter-Glo), U87MG; format: cell-based; details: Homo sapiens, U-87 MG, 96 h
Procedure: Plate cells in a 96-well plate at 2000 cells/well in 100 μL of cell specific medium (for U87MG use DMEM, 10% FBS, 25 mM 4-(2-hydroxyethyl)-1-piperazineethanesulfonic acid (HEPES), 1.0 mM sodium pyruvate, and 0.1 mM Non Essential Amino Acids (ATCC Cat.#30-2002); for HT1080 use Eagle's MEM, 10% FBS (ATCC Cat.#30-2003); for H1975, A2780, SJSA-1 and 786-O use RPMI 1640, 10% FBS (ATCC Cat.#30-2001); for A204 use McCoy's 5A, 10% FBS (ATCC Cat.#30-2007) except in column 1 use medium only as the blank control. Incubate the plates overnight at 37° C. and 5% CO2. On the next day, prepare compound stocks at 1 mM in DMSO and serially dilute in DMSO in a 96-well round bottom polypropylene plate. Assay compounds at 10 concentrations in duplicate, 4 compounds per plate.
Transfer 4 μL of the DMSO serial dilutions to a 96 well plate and add 196 μL of culture medium to create a 10× stock for dosing. Gently transfer 11 μL of each dosing stock to the corresponding well of the cell plate resulting in a 0.2% DMSO concentration and a 111 μL final volume. […]
Prepared the CellTiter-Glo reagent (Promega, Cat: G7571) and add 100 µL to each well after the incubation is complete, homogenize the cells by mixing on an orbital shaker for 2 min and then incubate at RT for 10 min to allow the luminescent signal to stabilize. Record the luminescent raw data with a Wallac Victor V plate reader. […]

[1] = system: CXF 1783 human tumor xenograft cells; assay: Oncotest tumor clonogenic assay, CXF 1783; format: cell-based; details: colony formation, Colon CXF 1783, colon carcinoma, wd, read-out: Absolute IC50
[2] = system: PAXF 546 human tumor xenograft cells; assay: Oncotest tumor clonogenic assay, PAXF 546; format: cell-based; details: PAXF546, colony formation, Pancreas PAXF 546, inf., mucous squamous cell carcinoma, read-out: Absolute IC50
[3] = system: PAXF 736 human tumor xenograft cells; assay: Oncotest tumor clonogenic assay, PAXF 736; format: cell-based; details: PAXF736, colony formation, Pancreas PAXF 736, adeno carcinoma, pd, read-out: Absolute IC50
pT389 p70S6K = assay: In vivo target inhibition in U87MG tumors, pT389 p70S6K; details: Mus musculus, U-87 MG; for inhibition at 0.5 mg/kg: 0.5 mg/kg oral; for inhibition at 1.5 mg/kg: 1.5 mg/kg oral; for inhibition at 3 mg/kg: 3 mg/kg oral; for inhibition at 6 mg/kg: 6 mg/kg oral; for inhibition at 10 mg/kg: 10 mg/kg oral; for inhibition at 12 mg/kg: 12 mg/kg oral
Procedure: (§1) Implant U87MG human glioblastoma cells (5×10^6) subcutaneously into the flank of athymic nude mice in 0.2 mL of matrigel. Ten days post-implantation, dose mice orally according to a time course, single dose/single time point, or dose response protocol for the determination of TMED50 (threshold minimum effective dose). Flash freeze tumors at harvest and collect blood for the determination of parent compound plasma exposure and the calculation of TMEC50 (threshold minimum effective concentration) in the case of dose response studies. Homogenize tumors in 500 μL of XY Lysis Buffer (10 μg/mL Leupeptin, 10 μg/mL Trypsin-Chymotrypsin Inhibitor, 10 μg/mL Tosyl phenyl-alanyl chloromethyl ketone, 10 μg/mL Aprotinin, 60 mM Beta-Glycerol Phosphate, 1% Triton X100, 25 mM Tris pH 7.5, 2.5 mM Pyrophosphate, 150 mM NaCl, 2 mM p-tosyl-L-arginine methyl ester, 15 mM para-nitrophenyl phosphate, 5 mM benzamidine, 1 mM sodium vanadate, 10 mM sodium fluoride, 50 μg/mL phenyl-methane sulfonyl fluoride, 1 mM 1,4-dithiothreitol (DTT), 15 mM EDTA pH 8.0, 5 mM EGTA pH 8.0, 1 μM Microcystin, 1 μM Okadaic Acid, and 1 Roche Complete protease inhibitor mini-tablet per 10 mL) using RNase Free Pellet Pestle (Kimble-Kontes). Aliquot lysates and either assay immediately or store at −80° C. for later testing. Use the multiplex format of Meso Scale Discovery (Gaithersburg, Md.) ELISA technology and measure in vivo target inhibition of PI3K and mTOR to assess effects on phosphorylation of the threonine 308 site of AKT, a downstream effector of PI3K; phosphorylation on the threonine 389 site of p70 S6K and on the serine 240/244 site of S6RP, downstream effectors of mTORC1; phosphorylation of the serine 473 site of AKT, a downstream effector of mTORC2. Add 20 μg of lysate to carbon electrode containing 96-well plates pre-spotted with the appropriate capture antibodies. Probe the protein of interest using a ruthenium labeled detection antibody. Pass current over the electrode in the presence of read buffer containing the co-reactant TPA, and quantitate and record the light generated by electro-chemiluminescence with the MSD Sector 6000 instrument. Calculate percent inhibitions relative to the vehicle control group and perform ANOVA analysis using the JMP software package for the determination of statistical significance.

pS240/244 S6RP = assay: In vivo target inhibition in U87MG tumors, pS240/244 S6RP; details: Mus musculus, U-87 MG; for inhibition at 0.5 mg/kg: 0.5 mg/kg oral; for inhibition at 1.5 mg/kg: 1.5 mg/kg oral; for inhibition at 3 mg/kg: 3 mg/kg oral; for inhibition at 6 mg/kg: 6 mg/kg oral; for inhibition at 10 mg/kg: 10 mg/kg oral; for inhibition at 12 mg/kg: 12 mg/kg oral
Procedure: as §1

IC50 (U87MG): 0.074 µM
IC50 [1]: 0.029 µM
IC50 [2]: 0.105 µM
IC50 [3]: 0.174 µM
Structure (SMILES): CO[C@@H](C)Cn1c(=O)n(C)c2cnc3ccc(-c4cncc(C(C)(C)O)c4)cc3c21 [Example 1, 8-[5-(1-Hydroxy-1-methylethyl)pyridin-3-yl]-1-[(2S)-2-methoxypropyl]-3-methyl-1,3-dihydro-2H-imidazo[4,5-c]quinolin-2-one]
inhibition at 0.5 mg/kg (pT389 p70S6K; 0.5 hr post dose): 62%
inhibition at 0.5 mg/kg (pT389 p70S6K; 4 hr post dose): 7%
inhibition at 1.5 mg/kg (pT389 p70S6K; 0.5 hr post dose): 84%
inhibition at 1.5 mg/kg (pT389 p70S6K; 4 hr post dose): 38%
inhibition at 3 mg/kg (pT389 p70S6K; 0.25 hr post dose): 77%
inhibition at 3 mg/kg (pT389 p70S6K; 0.5 hr post dose): 89%
inhibition at 3 mg/kg (pT389 p70S6K; 1 hr post dose): 89%
inhibition at 3 mg/kg (pT389 p70S6K; 3 hr post dose): 77%
inhibition at 3 mg/kg (pT389 p70S6K; 4 hr post dose): 64%
inhibition at 6 mg/kg (pT389 p70S6K; 0.25 hr post dose): 88%
inhibition at 6 mg/kg (pT389 p70S6K; 0.5 hr post dose): 91%
inhibition at 6 mg/kg (pT389 p70S6K; 1 hr post dose): 90%
inhibition at 6 mg/kg (pT389 p70S6K; 2 hr post dose): 87%
inhibition at 6 mg/kg (pT389 p70S6K; 4 hr post dose): 68%
inhibition at 6 mg/kg (pT389 p70S6K; 6 hr post dose): 61%
inhibition at 6 mg/kg (pT389 p70S6K; 12 hr post dose): 14%
inhibition at 10 mg/kg (pT389 p70S6K; 0.5 hr post dose): 93%
inhibition at 10 mg/kg (pT389 p70S6K; 1 hr post dose): 92%
inhibition at 10 mg/kg (pT389 p70S6K; 2 hr post dose): 92%
inhibition at 10 mg/kg (pT389 p70S6K; 4 hr post dose): 91%
inhibition at 10 mg/kg (pT389 p70S6K; 8 hr post dose): 55%
inhibition at 12 mg/kg (pT389 p70S6K; 0.5 hr post dose): 92%
inhibition at 12 mg/kg (pT389 p70S6K; 4 hr post dose): 90%
inhibition at 0.5 mg/kg (pS240/244 S6RP; 0.5 hr post dose): 9%
inhibition at 0.5 mg/kg (pS240/244 S6RP; 4 hr post dose): 5%
inhibition at 1.5 mg/kg (pS240/244 S6RP; 0.5 hr post dose): 4%
inhibition at 1.5 mg/kg (pS240/244 S6RP; 4 hr post dose): 12%
inhibition at 3 mg/kg (pS240/244 S6RP; 0.25 hr post dose): -11%
inhibition at 3 mg/kg (pS240/244 S6RP; 0.5 hr post dose): 9%
inhibition at 3 mg/kg (pS240/244 S6RP; 1 hr post dose): 51%
inhibition at 3 mg/kg (pS240/244 S6RP; 3 hr post dose): 64%
inhibition at 3 mg/kg (pS240/244 S6RP; 4 hr post dose): 37%
inhibition at 6 mg/kg (pS240/244 S6RP; 0.25 hr post dose): 7%
inhibition at 6 mg/kg (pS240/244 S6RP; 0.5 hr post dose): 26%
inhibition at 6 mg/kg (pS240/244 S6RP; 1 hr post dose): 66%
inhibition at 6 mg/kg (pS240/244 S6RP; 2 hr post dose): 83%
inhibition at 6 mg/kg (pS240/244 S6RP; 4 hr post dose): 58%
inhibition at 6 mg/kg (pS240/244 S6RP; 6 hr post dose): 55%
inhibition at 6 mg/kg (pS240/244 S6RP; 12 hr post dose): -35%
inhibition at 10 mg/kg (pS240/244 S6RP; 0.5 hr post dose): -4%
inhibition at 10 mg/kg (pS240/244 S6RP; 1 hr post dose): 69%
inhibition at 10 mg/kg (pS240/244 S6RP; 2 hr post dose): 89%
inhibition at 10 mg/kg (pS240/244 S6RP; 4 hr post dose): 95%
inhibition at 10 mg/kg (pS240/244 S6RP; 8 hr post dose): 16%
inhibition at 12 mg/kg (pS240/244 S6RP; 0.5 hr post dose): 55%
inhibition at 12 mg/kg (pS240/244 S6RP; 4 hr post dose): 97%
